Results from US5047534A (Merrell Dow Pharmaceuticals Inc., priority 1990, dated 1991).
Where two headings read alike, the source gives them in different places.

Columns and labels:
adenosine A-2 receptors = target: T1, adenosine A-2 receptors (Rattus norvegicus, UniProt P30543); assay: Test for affinity for brain adenosine A-2 receptors ([3H]NECA displacement, striatal membranes); format: binding; details: read-out: A2 Ki
T1 construct: tissue Charles River (animals); host or cells: brain striatum membranes, young male rats (C-D strain)
Method: Membranes for ligand binding are isolated from rat brain striatum. The tissue is homogenized in 20 vol icecold 50 mM Tris-HCl buffer (pH 7.7) using a polytron (setting for 6 to 20 seconds). The homogenate is centrifuged at 50,000 x g for 10 minutes at 4° C. The pellet is again homogenized in a polytron in 20 vol of buffer, and centrifuged as before. The pellet is finally resuspended in 40 vol of 50mM Tris-HCl (pH 7.7) per gram of original wet weight of tissue.
Incubations are carried out at 25° C. for 60 minutes. Each tube is filtered through GF/B glass fiber filters using a vacuum. The filters are rinsed two times with 5 ml of the ice-cold buffer. […] The filters are counted by liquid scintillation spectrometry.
Specific binding of [3H]NECA is measured as the excess over blanks run in the presence of 100 μM 2-chloroadenosine. Total membrane-bound radioactivity is about 2.5% of that added to the test tubes. […] Specific binding to membranes is about 50% of the total bound.

Adenosine A-1 receptor [1] = target: T2, Adenosine A-1 receptor (Rattus norvegicus, UniProt P25099)
T2 sequence (P25099 1-326): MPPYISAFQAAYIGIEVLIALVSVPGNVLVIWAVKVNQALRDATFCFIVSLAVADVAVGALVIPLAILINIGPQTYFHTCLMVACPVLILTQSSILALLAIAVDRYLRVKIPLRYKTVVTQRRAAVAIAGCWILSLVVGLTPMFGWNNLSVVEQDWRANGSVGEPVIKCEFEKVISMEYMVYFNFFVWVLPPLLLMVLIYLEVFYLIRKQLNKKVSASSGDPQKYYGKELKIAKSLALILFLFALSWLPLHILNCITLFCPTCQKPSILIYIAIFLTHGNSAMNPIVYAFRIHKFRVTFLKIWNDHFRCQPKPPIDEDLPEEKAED

Adenosine A-1 receptor [2] = target: T2, Adenosine A-1 receptor; assay: Test for affinity for brain adenosine A-1 receptor binding sites ([3H]cyclohexyladenosine displacement, whole brain membranes); details: ratio of A2 Ki to A1 Ki
Adenosine A-1 receptor [3] = target: T2, Adenosine A-1 receptor; assay: biochemical
A-1 receptors = details: read-out: Ki at the A-1 receptors in brain membranes; cited from earlier work

T1 sequence (P30543 whole entry): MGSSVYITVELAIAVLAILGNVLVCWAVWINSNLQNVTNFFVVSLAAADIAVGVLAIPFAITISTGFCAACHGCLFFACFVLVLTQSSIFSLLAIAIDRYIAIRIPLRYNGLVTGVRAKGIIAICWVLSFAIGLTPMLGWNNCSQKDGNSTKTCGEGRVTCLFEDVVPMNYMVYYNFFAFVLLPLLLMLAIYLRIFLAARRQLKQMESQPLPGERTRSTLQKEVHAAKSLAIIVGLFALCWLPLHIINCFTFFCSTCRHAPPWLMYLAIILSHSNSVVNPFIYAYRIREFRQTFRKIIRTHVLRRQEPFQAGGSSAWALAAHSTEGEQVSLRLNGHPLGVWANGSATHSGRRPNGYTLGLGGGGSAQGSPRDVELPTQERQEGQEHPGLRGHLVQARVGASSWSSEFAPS

“3,7-Dihydro-8-(1-phenylethyl-2-phenylethyl)-1,3-dipropyl-1H-purine-2,6-dione” showed a Ki (adenosine A-2 receptors) of 2600 nM, a Ki (Adenosine A-1 receptor [1]) of 71 nM and an A2/A1 (Adenosine A-1 receptor [2]) of 37.
`CCCC(Cc1ccccc1)c1nc2c(=O)n(CCC)c(=O)n(CCC)c2[nH]1` (racemic) [3,7-Dihydro-8-[1-(phenylmethyl)butyl]-1,3-dipropyl-1H-purine-2,6-dione] showed a Ki (adenosine A-2 receptors) of 608 nM.
For `CCCn1c(=O)c2[nH]c(C(C)Cc3ccccc3)nc2n(CCC)c1=O` (racemic) [3,7-Dihydro-8-[(±)-1-methyl-2-phenylethyl]-1,3-dipropyl-1H-purine-2,6-dione], the Ki (adenosine A-2 receptors) was 644 nM.
For `CCCn1c(=O)c2[nH]c(C(CC)c3ccccc3)nc2n(CCC)c1=O` (racemic) [3,7-dihydro-8-[(±)-phenylpropyl]-1,3-dipropyl-1H-purine-2,6-dione], the Ki (Adenosine A-1 receptor [3]) was 5.1 nM, the Ki (adenosine A-2 receptors) was 1100 nM and the A2/A1 (Adenosine A-1 receptor [2]) was 216.
`CCCn1c(=O)c2[nH]c([C@@H](CC)c3ccccc3)nc2n(CCC)c1=O` [3,7-Dihydro-8-[(S)-phenylpropyl]-1,3-dipropyl-1H-purine-2,6-dione] gave a Ki (Adenosine A-1 receptor [3]) of 52 nM, a Ki (adenosine A-2 receptors) of 1560 nM and an A2/A1 (Adenosine A-1 receptor [2]) of 30.
Work on `C=CCn1c(=O)c2[nH]c(C(C)c3ccccc3)nc2n(CC=C)c1=O` (stereo not drawn) [3,7-dihydro-8-(1-phenylethyl)-1,3-di-2-propenyl-1H-purine-2,6-dione] yielded a Ki (Adenosine A-1 receptor [3]) of 20 nM, a Ki (adenosine A-2 receptors) of 2400 nM and an A2/A1 (Adenosine A-1 receptor [2]) of 119.
For `CCCn1c(=O)c2nc(C(C)c3ccccc3)[nH]c2n(CCC)c1=O` (stereo not drawn) [3,7-dihydro-8-(1-phenylethyl)-1,3-dipropyl-1H-purine-2,6-dione], the Ki (adenosine A-2 receptors) was 1600 nM.
With `CCCn1c(=O)c2[nH]c(C3Cc4ccccc4C3)nc2n(CCC)c1=O` [3,7-dihydro-8-(2-indanyl)-1,3-dipropyl-1H-purine-2,6-dione] the Ki (adenosine A-2 receptors) was 7100 nM.
`CCCn1c(=O)c2nc(C(CO)Cc3ccccc3)[nH]c2n(CCC)c1=O` (stereo not drawn) [3,7-dihydro-8-[1-(hydroxymethyl)-2-phenylethyl]-1,3-dipropyl-1H-purine-2,6-dione] showed a Ki (adenosine A-2 receptors) of 3900 nM.
`CCCn1c(=O)c2nc(C(CC)Cc3ccccc3)[nH]c2n(CCC)c1=O` (stereo not drawn) [3,7-dihydro-8-[1-(phenylmethyl)propyl]-1,3-dipropyl-1H-purine-2,6-dione] showed a Ki (adenosine A-2 receptors) of 71700 nM.
Compound `CCCn1c(=O)c2[nH]c([C@H](C)Cc3ccccc3)nc2n(CCC)c1=O` [3,7-dihydro-8-[(1R)-1-methyl-2-phenylethyl]-1,3-dipropyl-1H-purine-2,6-dione] has a Ki (adenosine A-2 receptors) of 157 nM.
For `CCCn1c(=O)c2nc([C@@H](C)Cc3ccccc3)[nH]c2n(CCC)c1=O` [3,7-dihydro-8-[(1S)-1-methyl-2-phenylethyl]-1,3-dipropyl-1H-purine-2,6-dione], the Ki (adenosine A-2 receptors) was 848 nM.
Work on `CCCn1c(=O)c2[nH]c([C@H](CC)c3ccccc3)nc2n(CCC)c1=O` [3,7-dihydro-8-[(R)-phenylpropyl]-1,3-dipropyl-1H-purine-2,6-dione] yielded a Ki (Adenosine A-1 receptor [3]) of 1.6 nM, a Ki (adenosine A-2 receptors) of 647 nM and an A2/A1 (Adenosine A-1 receptor [2]) of 404.
In the case of `CCCn1c(=O)c2[nH]c(-c3ccc(OCC(=O)NCCN)cc3)nc2n(CCC)c1=O` [XAC], the Ki (A-1 receptors) is given as 1.2 ± 0.5 nM.
